Test results taken from publication PMC8064491, “Design and Synthesis of Novel Symmetric Fluorene-2,7-Diamine Derivatives as Potent Hepatitis C Virus Inhibitors” (Pharmaceuticals, 2021).
Read-outs that look alike come from different tables or passages of the source.

Assays:
[1] = test system: HCV subgenomic reporter replicon of genotype 1b (strain Con1); assay: Anti-HCV 1b activity, luciferase reporter replicon assay in Huh5-2 cells; type: cell-based, Hepatitis C virus; conditions: for fold more potent than six-membered congeners: 1, 9, 17, 21 vs 29, 30, 31, 32 respectively; for HCV Replicon 1b SI50: SI50 = CC50/EC50
Procedure: (§1) The HCV RNA replication inhibitory effect of the novel compounds and their impact on cell viability was tested in the stable cell line Huh5-2 carrying an HCV subgenomic reporter replicon of genotype 1b (strain Con1). The viral replication level was measured in terms of the activity of the co-expressed firefly luciferase (F-Luc). Several concentrations of the tested compounds were prepared in a cell culture medium and were used to treat the cells for 72 h. The solvent DMSO was added as a control with a final concentration of 0.2% so as not to impact viral replication (data not shown). First, different compound concentrations of up to 100 μM were evaluated for their effect on cell viability; results are reported as the median cytotoxic concentration (CC50). Next, all compounds were screened for their anti-HCV activity at a concentration of 1 µM, and compounds showing ≥50% activity were further tested in several concentrations to calculate the median effective concentration (EC50) values (Table 1 and Table 2). The anti-HCV activity of the analogs 1–32 was estimated by quantifying luciferase activity resulting from viral replication. Cytotoxicity was determined by measuring the intracellular levels of ATP. The selectivity index (SI50) was calculated as the ratio of CC50 to EC50 and was calculated as an indication of the compounds’ safety. We used daclatasvir as a positive control.
(§2) The stable replicon cell line Huh5-2 (genotype 1b; Con1) (kindly provided by R. Bartenschlager, Heidelberg University, Germany) has been described previously. The stable cell lines Huh7.5-3a and Huh7.5-4a have been constructed with the subgenomic reporter replicons of HCV 3a (S52) S52-SG(Feo)(AII) and HCV 4a (ED43) ED43-SG(Feo)(VYG) (kindly provided by C.M. Rice, The Rockefeller University, NY). Cells were cultured in high glucose (25 mM) Dulbecco’s modified minimal essential medium (Invitrogen), supplemented with 2 mM L-glutamine, 0.1 mM non-essential amino acids, 100 U/mL penicillin, 100 µg/mL streptomycin, and 10% (v/v) fetal calf serum (referred to as complete DMEM). Complete DMEM was supplemented with G418 at 500 μg/mL for Huh5-2, 750 μg/mL for Huh7.5-3a, and 350 μg/mL for Huh7.5-4a.
(§3) Cells were treated with serial dilutions of the test compounds or the solvent DMSO for 72 h. Antiviral activity and cytotoxicity were determined by measuring virus-derived luciferase activity or intracellular ATP levels, respectively. The median effective concentration (EC50) of the compounds, reducing luciferase signal by 50%, and their median cytotoxic concentration (CC50), causing 50% cell death, were determined by nonlinear regression analysis using the Prism 6.0 software (GraphPad Software Inc.). Daclatasvir was kindly provided by Dr. Marc Windisch (Institut Pasteur Korea).
Firefly luciferase activity was measured using Luciferase Assay System (Promega), according to the manufacturer’s instructions. Measurements were performed with a GloMax 20/20 single tube luminometer (Promega) for 10 s. Values were normalized to total protein amounts as quantified by Bradford assay (Pierce).

[2] = test system: Huh5-2 cells; assay: Cytotoxicity by intracellular ATP levels; type: cell-based; conditions: 72 h, read-out: HCV Replicon 1b CC50
Procedure: as §1, §3
(§4) ATP was measured using the ViaLight HS BioAssay kit (Lonza) according to the manufacturer’s protocol in a GloMax 20/20 single-tube luminometer (Promega) for 1 s. Values were normalized to total protein amounts.

[3] = Cytotoxicity by intracellular ATP levels; type: cell-based; conditions: human, Huh5-2 cells, read-out: HCV Replicon 1b CC50
Procedure: as §1, §3, §4

[4] = test system: HCV subgenomic replicon of genotype 3a (strain S52); assay: Anti-HCV 3a activity, replicon assay in Huh7.5-3a cells; type: cell-based, Hepatitis C virus; conditions: for EC50: Hepatitis C virus, read-out: EC50 GT 3a
Description: (§5) Compound 26, showing the highest activity on genotype 1b was further tested against HCV 3a and 4a replicons. The fact that genotype 4 is highly heterogeneous, of less response to DAAs, and the most prevalent genotype in Egypt, made this genotype of specific interest. Moreover, genotype 3 is the most difficult to treat genotype using DAAs, especially in patients with liver cirrhosis. Specifically, Huh7.5-3a and Huh7.5-4a stable cell lines having HCV subgenomic replicons of genotypes 3a (strain S52) and 4a (strain ED43), respectively, were treated with different concentrations of compound 26. […] Further structural optimization is required, and testing compound 26 in combination with other DAAs could improve the clinical outcome.
as §2
(§6) Cells were treated with serial dilutions of the test compounds or the solvent DMSO for 72 h. Antiviral activity and cytotoxicity were determined by measuring virus-derived luciferase activity or intracellular ATP levels, respectively. […]
(§7) Firefly luciferase activity was measured using Luciferase Assay System (Promega), according to the manufacturer’s instructions. […] Values were normalized to total protein amounts as quantified by Bradford assay (Pierce).

[5] = test system: HCV subgenomic replicon of genotype 4a (strain ED43); assay: Anti-HCV 4a activity, replicon assay in Huh7.5-4a cells; type: cell-based; conditions: Hepatitis C virus, read-out: EC50 GT 4a
Description: as §5
The stable replicon cell line Huh5-2 (genotype 1b; Con1) (kindly provided by R. Bartenschlager, Heidelberg University, Germany) has been described previously. […]
as §6, §7

[6] = test system: HCV genotype 1b replicon (Huh5-2 cells); assay: Drug-drug interaction with daclatasvir in Huh5-2 replicon cells (F-Luc activity); type: cell-based, Hepatitis C virus
Procedure: Next, we investigated the effect of compound 26 in the presence of daclatasvir (DCV) in Huh5-2 replicon cells. […] It is worth noting that NS5A is a very flexible protein and can attain different conformations (open conformer and closed conformer PDB ID: 1ZH1, 3FQM, respectively); thus, there is the potential for different binding modes of daclatasvir and our molecules, at the active center of the NS5A protein, leading to synergism.
The coefficient of Drug interactions (CDI) is calculated as follows: CDI = AB / (A × B), where AB is the ratio of the combination groups to the control group; A or B is the ratio of the single-agent group to the control group.
Figure 4 Synergistic anti-HCV activity of compound 26 with daclatasvir (DCV). Huh5-2 cells were treated with 30 pM or […] of DCV was used to in the presence or absence of the analog. F-Luc activity was quantified as relative light units (RLU) per μg of total protein. Values derived from cells treated with the solvent DMSO (control—C) were set to 100%. CDI: coefficient of drug interaction. Bars show mean values derived from three independent experiments in triplicate. Error bars denote standard deviation (SD). TEXT PRINTED IN THE PICTURE: 26 + DCV: CDI: 0,68 (DCV 15 pM - Comp. 26 25 pM); CDI: 0,70 (DCV 30 pM - Comp. 26 50 pM)

[7] = test system: HCV 1b RNA; assay: Quantification of (+) strand HCV RNA by RT-qPCR in Huh5-2 cells; type: cell-based; conditions: Hepatitis C virus, Huh-5-2, normalized to YWHAZ
Procedure: The HCV RNA and NS5A protein levels were determined in cells treated with compound 26 using reverse transcription-quantitative polymerase chain reaction (RT-qPCR) or Western blot analysis, respectively (Figure 5A).
Total RNA was extracted from Huh5-2 cells with Nucleozol reagent (Macherey-Nagel), according to the manufacturer’s instructions, and used to perform reverse-transcription (RT) and quantitative real-time polymerase chain reaction (qPCR) for replicon RNA. RT was performed using Moloney Murine Leukemia Virus (MMLV) reverse transcriptase (Promega) and reverse primers specific for Con1 IRES (5’-[…]-3’) and the housekeeping gene YWHAZ (5’- […]-3’). For qPCR, primers specific for the Con1 IRES (forward: 5’-[…]-3’and reverse: 5’-[…]-3’) and KAPA SYBR FAST qPCR Master Mix (Kapa Biosystems) were used. YWHAZ mRNA was used as a normalization control (forward: 5’-[…]-3’ and reverse: 5’- […]-3’).
Figure 5 Anti-HCV activity of compound 26 at the level of viral RNA and protein. Different concentrations of compound 26, or the solvent DMSO (control—C), were used to treat Huh5-2 cells. (A) Quantification of (+) strand HCV RNA by RT-qPCR. Values are expressed as a percentage of those obtained from control cells. mRNA levels of the housekeeping gene 14-3-3-zeta polypeptide (YWHAZ) were used for normalization. (B) (Top) Western blot analysis for NS5A. β-actin was used as a loading control. […]

[8] = Huh5-2 cells, 72 h, luciferase activity, read-out: HCV Replicon 1b EC50

Dimethyl((2S,2’S)-((2S,2’S)-(((9H-fluorene-2,7-diyl)bis(azanediyl))bis(carbonyl))bis(pyrrolidine-2,1-diyl))bis(3-methyl-1-oxopentane-1,2-diyl))dicarbamate [Compound 9]
fold more potent than six-membered congeners ([1]; HCV 1b EC50 ratio): 11 fold
times less active than R congener compound 13 ([1]; HCV 1b EC50 ratio): around 340 times
EC50 [1, 8]: 27.5 nM
HCV Replicon 1b SI50 [1]: >3636
CC50 [2]: > 100 µM

Diethyl((2S,2’S)-((2S,2’S)-(((9H-fluorene-2,7-diyl)bis(azanediyl))bis(carbonyl))bis(pyrrolidine-2,1-diyl))bis(3-methyl-1-oxopentane-1,2-diyl))dicarbamate [Compound 10]
fold more potent than congener with D-leucine moiety ([1]; HCV 1b EC50 ratio): 18 fold
EC50 [1, 8]: 0.137 nM
HCV Replicon 1b SI50 [1]: 622,344
CC50 [2]: 85.5 µM

Dibenzyl((2S,2’S)-((2S,2’S)-(((9H-fluorene-2,7-diyl)bis(azanediyl))bis(carbonyl))bis(pyrrolidine-2,1-diyl))bis(4-methyl-1-oxopentane-1,2-diyl))dicarbamate [Compound 20]
EC50 [1, 8]: > 1000 nM
CC50 [2]: 98.7 µM

Diethyl((2S,2’S)-((2S,2’S)-(((9H-fluorene-2,7 diyl)bis(azanediyl))bis(carbonyl)) bis(pyrrolidine-2,1-diyl))bis(4-methyl-1-oxopentane-1,2-diyl))dicarbamate [Compound 18]
EC50 [1, 8]: 151 nM
HCV Replicon 1b SI50 [1]: >664
CC50 [2]: > 100 µM

COC(=O)N[C@H](C(=O)N1CCC[C@H]1c1nc(-c2ccc(-c3ccc(-c4c[nH]c([C@@H]5CCCN5C(=O)[C@@H](NC(=O)OC)C(C)C)n4)cc3)cc2)c[nH]1)C(C)C [Daclatasvir, reference compound]
EC50 ([1]; Hepatitis C virus, Huh-5-2, Huh5-2 cells, 72 h, luciferase activity, read-out: HCV Replicon 1b EC50): 0.027 nM
HCV Replicon 1b SI50 [1]: 655,556
CC50 at 72 h [3]: 17.7 µM
EC50 ([4]; Huh7.5-3a cells): 8.3 nM

Dibenzyl((2S,2’S)-((2S,2’S)-(((9H-fluorene-2,7-diyl)bis(azanediyl))bis(carbonyl))bis(pyrrolidine-2,1-diyl))bis(3-methyl-1-oxopentane-1,2-diyl))dicarbamate [Compound 12]
EC50 [1, 8]: > 1000 nM
CC50 [2]: 46.5 µM

Dimethyl((2S,2’S)-((2S,2’S)-(((9H-fluorene-2,7-diyl)bis(azanediyl))bis (carbonyl)) bis(pyrrolidine-2,1-diyl))bis(4-methyl-1-oxopentane-1,2-diyl))dicarbamate [Compound 17]
fold more potent than six-membered congeners ([1]; HCV 1b EC50 ratio): 28 fold
EC50 [1, 8]: 10.7 nM
HCV Replicon 1b SI50 [1]: >9381
CC50 [2]: > 100 µM

CCOC(=O)N[C@@H](C(=O)N1CCC[C@H]1C(=O)Nc1ccc2c(c1)Cc1cc(NC(=O)[C@@H]3CCCN3C(=O)[C@H](NC(=O)OCC)c3ccccc3)ccc1-2)c1ccccc1 [Compound 26, Diethyl((1R,1’R)-((2S,2’S)-(((9H-fluorene-2,7-diyl)bis(azanediyl))bis(carbonyl))bis(pyrrolidine-2,1-diyl))bis(2-oxo-1-phenylethane-2,1-diyl))dicarbamate]
fold more active than S counterparts ([1]; 25 vs 21, 26 vs 22, HCV 1b EC50 ratio): 200 fold
EC50 ([1]; Hepatitis C virus, Huh-5-2, 72 h, read-out: HCV Replicon 1b EC50): 0.036 nM
EC50 ([1]; Hepatitis C virus, Huh-5-2, read-out: EC50 against HCV genotype 1b): 0.04 nM
selectivity index relative to daclatasvir ([1]; SI50 ratio): four-fold better
CC50 at 72 h [3]: > 100 µM
effect on GT 3a relative to daclatasvir ([4]; EC50 ratio): seven-fold higher
EC50 [4]: 1.2 nM
EC50 [5]: 117 nM
CDI ([6]; DCV 15 pM - Comp. 26 25 pM): 0,68
CDI ([6]; DCV 30 pM - Comp. 26 50 pM): 0,70
coefficient of drug interaction (CDI) ([6]; compound 26 with daclatasvir, CDI <1 synergistic): ≈ 0.7
EC50 [7]: 0.03 nM
